In US20230416329A1, “A PEPTIDE WITH DISULFIDE BONDS AND INHIBITORY ACTIVITY AGAINST SERINE PROTEASES, DERIVED HYBRID PEPTIDES THEREOF, AND USES THEREOF” (INSTITUTE OF MATERIA MEDICA , CHINESE ACADEMY OF MEDICAL …, priority 2020, published 2023):
Bridge positions count the residues as written; N and C are the ends. Peptide text beside a SMILES is read from it.

Biological target: α-chymotrypsin (Bos taurus, UniProt P00766)
Assay: Chymotrypsin inhibitory activity of peptides (AAPFpNA hydrolysis; IC50, Ki, residual activity)
Type: biochemical
Settings: for Ki: Ki=IC50/(1+S/Km), Km 0.38 mM; for IC50: chymotrypsin 30 nM, AAPFpNA 0.5 mM
Procedure, shortened: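 Peptide preincubated 10 min at 37 °C with 30 nM α-chymotrypsin in 50 mM Tris-HCl pH 7.8, 20 mM CaCl2; 0.5 mM AAPFpNA then added and A405 read after 90 min. Residual activity versus controls gave IC50; Ki = IC50/(1+S/Km), with Km measured separately.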

Compound | Ki [µM] | IC50 [µM] | inhibitory activity against chymotrypsin (in words)
C[C@@H]1NC(=O)[C@@H](NC(=O)[C@@H](N)Cc2ccccc2)CSSC[C@@H](C(=O)N[C@@H](CCC(N)=O)C(=O)O)NC(=O)[C@H](CCC(N)=O)NC(=O)[C@@H]2CCCN2C(=O)[C@@H]2CCCN2C(=O)[C@H](CC(N)=O)NC(=O)[C@H](CO)NC(=O)[C@H](Cc2ccc(O)cc2)NC1=O [CH43] (H-FCAYSNPPQCQ-OH; disulfide 2-10; N-terminus and C-terminus assumed) | 3.97 | 9.2 | 
C[C@@H]1NC(=O)[C@@H](NC(=O)[C@@H](N)Cc2ccccc2)CSSC[C@@H](C(=O)N[C@@H](CCC(N)=O)C(=O)O)NC(=O)[C@H](CCCCN)NC(=O)[C@@H]2CCCN2C(=O)[C@@H]2CCCN2C(=O)[C@H](CC(N)=O)NC(=O)[C@H](CO)NC(=O)[C@H](Cc2ccc(O)cc2)NC1=O [CH44] (H-FCAYSNPPKCQ-OH; disulfide 2-10; N-terminus and C-terminus assumed) | 8.59 | 19.9 | 
C[C@@H]1NC(=O)[C@@H](NC(=O)[C@@H](N)Cc2ccccc2)CSSC[C@@H](C(=O)N[C@@H](CCC(N)=O)C(=O)O)NC(=O)[C@H](CCCCN)NC(=O)[C@@H]2CCCN2C(=O)[C@@H]2CCCN2C(=O)[C@H](Cc2ccc(O)cc2)NC(=O)[C@H](CO)NC(=O)[C@H](Cc2ccc(O)cc2)NC1=O [CH45] (H-FCAYSYPPKCQ-OH; disulfide 2-10; N-terminus and C-terminus assumed) | 8.29 | 19.2 | 
NC(=O)CC[C@H](NC(=O)[C@@H]1CSSC[C@H](NC(=O)[C@@H](N)Cc2ccccc2)C(=O)N[C@@H](CC(N)=O)C(=O)N[C@@H](Cc2ccc(O)cc2)C(=O)N[C@@H](CO)C(=O)N[C@@H](CC(N)=O)C(=O)N2CCC[C@H]2C(=O)N2CCC[C@H]2C(=O)N[C@@H](CCC(N)=O)C(=O)N1)C(=O)O [CH46] (H-FCNYSNPPQCQ-OH; disulfide 2-10; N-terminus and C-terminus assumed) |  | > 50 | 
CC[C@H](C)[C@H](N)C(=O)N[C@H]1CSSC[C@@H](C(=O)N[C@H](C(=O)O)[C@@H](C)CC)NC(=O)[C@H](CCC(N)=O)NC(=O)[C@H](C)NC(=O)[C@@H]2CCCN2C(=O)[C@H]([C@@H](C)CC)NC(=O)[C@H](CO)NC(=O)[C@H](Cc2ccc(O)cc2)NC(=O)[C@H]([C@@H](C)O)NC1=O [CH47] (H-ICTYSIPAQCI-OH; disulfide 2-10; N-terminus and C-terminus assumed) | 3.68 | 8.52 | good chymotrypsin inhibitory activity
CSCC[C@@H]1NC(=O)[C@H](C)NC(=O)[C@@H]2CCCN2C(=O)[C@H](CC(N)=O)NC(=O)[C@H](CO)NC(=O)[C@H](Cc2ccccc2)NC(=O)[C@H]([C@@H](C)O)NC(=O)[C@@H](NC(=O)[C@@H](N)C(C)C)CSSC[C@@H](C(=O)N[C@@H](Cc2c[nH]cn2)C(=O)O)NC1=O [CH48] (H-VCTFSNPAMCH-OH; disulfide 2-10) |  | > 50 | 
CSCC[C@H](N)C(=O)N[C@H]1CSSC[C@@H](C(=O)N[C@H](C(=O)O)C(C)C)NC(=O)[C@H](CCCCN)NC(=O)[C@H](C)NC(=O)[C@@H]2CCCN2C(=O)[C@H](Cc2c[nH]cn2)NC(=O)[C@H](CO)NC(=O)[C@H](Cc2ccccc2)NC(=O)[C@H]([C@@H](C)O)NC1=O [CH49] (H-MCTFSHPAKCV-OH; disulfide 2-10; N-terminus and C-terminus assumed) | 9.81 | 22.7 | good chymotrypsin inhibitory activity
CSCC[C@@H]1NC(=O)CNC(=O)[C@@H]2CCCN2C(=O)[C@H](CC(=O)O)NC(=O)[C@H](CO)NC(=O)[C@H](Cc2ccccc2)NC(=O)[C@H]([C@@H](C)O)NC(=O)[C@@H](NC(=O)[C@@H](N)CCSC)CSSC[C@@H](C(=O)N[C@@H](CO)C(=O)O)NC1=O [CH50] (H-MCTFSDPGMCS-OH; disulfide 2-10; N-terminus and C-terminus assumed) |  | > 50 | 
